Test results published in patent US11890335B2, “ErbB peptide pharmaceutical and vaccine compositions and therapeutic uses thereof for cancer” (L2 Diagnostics, LLC, priority 2017, dated 2024).
Entries after “also recorded” stand apart in the source; their conditions may differ. *1 amine or outer side, *2 acyl side, *3 side chain or, on linkers, in order; H or OH if unused. Where a SMILES comes first, the peptide text is derived from it. [ ]: non-standard residue; d: D form. βAsp = O=C(O)[C@H](CC(=O)[*:2])N[*:1]

Legend:
EGFR peptides = test: ELISA, antisera against the panel of EGFR peptides; assay type: binding, murine (mu) and human (hu); conditions: 100 μg peptide in CFA, boost in IFA, sera day 28
Text: (§1) Female Balb/c or female C57BL/6 mice, 6-8 weeks old, were obtained from the National Cancer Institute. All mice were housed at the Yale University School of Medicine Animal Facility. All protocols were consistent with accepted guidelines of the National Institutes of Health for the care and use of laboratory animals as well as approved by the Yale University Institutional Animal Care and Use Committee. For the generation of antibody, three to five Balb/c or C57BL/6 mice per group were immunized intraperitoneally and subcutaneously in one footpad with 100 μg of peptide emulsified 1:1 of PBS and complete Freund's adjuvant (CFA). Twenty-one days later, mice were boosted intraperitoneally and subcutaneously in the other footpad with 100 μg of immunizing peptide emulsified in incomplete Freund's adjuvant (IFA). Sera were collected via retro-orbital bleed at day 28 for antibody analyses. For T cell assays, mice were immunized by the same route of administration with 100 μg of peptide emulsified 1:1 in CFA. […]
Polystyrene microtiter plates (Nunc) were coated with either 50 μg/ml peptide or 1 μg of rHER2 or rHER3 extracellular domains in buffer (0.05 M carbonate-bicarbonate buffer, pH 9.6; Sigma) and incubated overnight at 4° C. […] Wells were read on a SpectraMax 450 ELISA reader (Molecular Dynamics) at 405 nm.

human EGFR on A431 cells = test: Flow cytometry, binding to A431 cells; conditions: for Staining of A431 cells by flow cytometry: serum 1:100 or cetuximab 5 μg/ml
Method: (§2) Cells (10^5 cells/sample) were stained with a 1:100 dilution of serum in PBS with 0.1% BSA and 0.05% sodium azide for 1 h at 4° C. Cells were washed and incubated with a 1:100 dilution of either anti-mouse IgG fluorescein isothiocyanate (FITC; Sigma) or anti-human IgG AlexaFluor 488 (Molecular Probes, Invitrogen) for 1 h at 4° C. Some samples were further stained using anti-FITC AlexaFluor 488. Cells were washed and fixed in PBS+1% paraformaldehyde. Cells were analyzed on a FACSCalibur (BD Biosciences) with FlowJo software (Tree Star). Controls included unstained cells and cells stained with secondary antibody alone.

TUBO-EGFR cells = test: In vivo tumor assay, TUBO-EGFR cells s.c. in immunized mice; conditions: immunized Balb/c mice, days 11, 13 and 18
Text: as §1
Female Balb/c mice were immunized with either Asp or isoAsp EGFR p580 as described above for the generation of antibody. […] Tumor volume was calculated by measuring three orthogonal axes (a, b, and c) with digital calipers, with the tumor volume=abc/2 (Cho H S et al. (2003) Nature 421:756-60).

HER3 p574 peptide = molecular target: T1, HER3 p574 peptide (Homo sapiens, UniProt P21860); test: ELISA, immune serum binding to HER3 p574 peptide; conditions: sera from Balb/c mice
T1 construct: host or cells: chemical synthesis
Method: (§3) Polystyrene microtiter plates (Nunc) were coated with either 50 μg/ml peptide or 1 μg of rHER2 or rHER3 extracellular domains in buffer (0.05 M carbonate-bicarbonate buffer, pH 9.6; Sigma) and incubated overnight at 4° C. Wells were washed, blocked with PBS containing 3% bovine serum albumin (BSA) followed by the addition of serum samples (1:100 dilution) for 2 h at room temperature. Alkaline phosphatase conjugated-goat anti-mouse IgG antibody (Southern Biotech) was added to the wells at a 1:1000 dilution and incubated at room temperature for 1.5 h. Wells were washed one last time, and developed by the addition of the substrate p-nitrophenyl phosphate (Sigma). Wells were read on a SpectraMax 450 ELISA reader (Molecular Dynamics) at 405 nm.

HER2 p585 peptide = molecular target: T2, HER2 p585 peptide (Homo sapiens, UniProt P04626); test: ELISA, immune serum binding to HER2 p585 peptide; conditions: sera from Balb/c mice
T2 construct: host or cells: chemical synthesis
Method: as §3

[1] = molecular target: T3, recombinant HER3 extracellular domain (Homo sapiens, UniProt P21860); test: ELISA, immune serum binding to recombinant HER3 extracellular domain; conditions: serum 1:100 dilution
T3 construct: Recombinant human HER3 extracellular domain was purchased from R&D Systems; purchased R&D Systems
Method: as §3

[2] = system: T cells from EGFR p580 immunized mice; test: T cell proliferation assay, 3H-thymidine; assay type: cell-based; conditions: lymph node cells of immunized C57BL/6 mice re-stimulated 72 h with peptide
[3] = molecular target: T4, recombinant HER2 extracellular domain (Homo sapiens, UniProt P04626); test: ELISA, immune serum binding to recombinant HER2 extracellular domain; conditions: serum 1:100 dilution
T4 construct: The extracellular domain of HER2 was a kind gift of Dr. Daniel Leahy
Method: as §3

[4] = system: MDA-MB-453 cells (HER2-positive, EGFR-negative); test: Flow cytometry, binding to MDA-MB-453 cells; parameters: species or system human; conditions: serum 1:100 or antibody 5 μg/ml
Method: as §2

HER4 p578 peptide = molecular target: T5, HER4 p578 peptide (Homo sapiens, UniProt Q15303); test: ELISA, immune serum binding to HER4 p578 peptide; conditions: data not shown
T5 construct: host or cells: chemical synthesis
Method: as §3

A431 cells [5] = conditions: isotype control 10 μg/ml, data not shown
MDA-MB-453 cells [6] = conditions: control antibodies, 10-40 mg/ml concentrations tested
Method: Cells were incubated for three days with 1:25 dilutions of sera from either Asp or isoAsp p580 immunized Balb/c mice. Cell proliferation was measured by 3H-thymidine incorporation.

native HER2 = native HER2 (Homo sapiens, UniProt P04626); conditions: Garrett J T et al. (2007); cited from earlier work
[7] = mouse, in vivo
MDA-MB-453 cells [8] = test: ADCC assay with human PBMC, MDA-MB-453 cells; assay type: cell-based; conditions: 1:25 serum or 20 μg/ml antibody, human PBMC 50:1, 4 h, compared to rituximab
Method: (§4) All experimental sera were heat-inactivated (56° C., 30 min) prior to use. A431 or MDA-MB-453 cells were incubated with a 1:25 dilution of heat-inactivated sera or control antibody (20 μg/ml) 30 min at 37° C. in 96-well U bottom plates. Freshly isolated human peripheral blood mononuclear cells (PBMC) from healthy donors were incubated with antibody coated target cells at a 50:1 effector to target ratio for 4 h at 37° C. Fifty microliters of each cell culture supernatant was then assayed for lactate dehydrogenase released from dead cells using the CytoTox96 Non-Radioactive Cytotoxicity Assay (Promega) per manufacturer's instructions. Percent cytotoxicity was calculated as [(experimental-effector spontaneous-target spontaneous)/(target maximum-target spontaneous)]×100.

A431 cells [9] = test: ADCC assay with human PBMC, A431 cells; assay type: cell-based; conditions: 1:25 serum or 20 μg/ml antibody, human PBMC 50:1, 4 h
Method: as §4

T3 sequence (P21860 20-643 limits assumed): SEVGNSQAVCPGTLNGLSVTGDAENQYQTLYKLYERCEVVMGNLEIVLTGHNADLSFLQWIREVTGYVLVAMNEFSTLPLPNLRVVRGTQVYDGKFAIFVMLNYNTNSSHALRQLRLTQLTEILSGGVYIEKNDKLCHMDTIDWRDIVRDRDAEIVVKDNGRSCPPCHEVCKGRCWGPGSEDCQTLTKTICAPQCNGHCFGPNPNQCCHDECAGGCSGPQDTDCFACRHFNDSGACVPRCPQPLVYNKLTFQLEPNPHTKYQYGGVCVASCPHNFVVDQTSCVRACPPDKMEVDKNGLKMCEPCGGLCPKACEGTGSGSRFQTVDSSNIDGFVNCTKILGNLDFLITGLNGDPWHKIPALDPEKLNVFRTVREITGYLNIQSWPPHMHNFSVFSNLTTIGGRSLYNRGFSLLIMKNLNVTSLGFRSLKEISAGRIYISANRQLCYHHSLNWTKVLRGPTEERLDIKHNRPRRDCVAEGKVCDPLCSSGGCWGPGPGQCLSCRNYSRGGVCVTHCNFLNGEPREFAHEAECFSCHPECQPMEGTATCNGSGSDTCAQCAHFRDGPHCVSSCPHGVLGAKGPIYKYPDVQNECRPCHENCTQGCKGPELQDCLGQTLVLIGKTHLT

Row | Molecule | Antibodies elicited by immunization, binding to EGFR peptides by ELISA (EGFR peptides) | Staining of A431 cells by flow cytometry (human EGFR on A431 cells) | Tumor size versus adjuvant alone (PBS-CFA) (TUBO-EGFR cells) | Immune serum binding to HER3 p574 peptide by ELISA (HER3 p574 peptide) | Immune serum binding to HER2 p585 peptide by ELISA (HER2 p585 peptide) | Immune serum binding to HER3 extracellular domain by ELISA [1] | T cell response to Asp and iso-Asp p580 [2] | Immune serum binding to HER2 extracellular domain by ELISA [3] | Binding to MDA-MB-453 cells by flow cytometry [4] | Immune serum binding to homologous HER4 p578 peptide (HER4 p578 peptide) | also measured
1 | CC[C@H](C)[C@H](N)C(=O)N[C@@H](CCC(N)=O)C(=O)N[C@@H](CS)C(=O)N[C@@H](C)C(=O)N[C@@H](Cc1c[nH]cn1)C(=O)N[C@@H](Cc1ccc(O)cc1)C(=O)N[C@H](C(=O)N[C@@H](CC(=O)O)C(=O)NCC(=O)N1CCC[C@H]1C(=O)N[C@@H](Cc1c[nH]cn1)C(=O)N[C@@H](CS)C(=O)N[C@H](C(=O)N[C@@H](CCCCN)C(=O)N[C@H](C(=O)N[C@@H](CS)C(=O)N1CCC[C@H]1C(=O)N[C@@H](C)C(=O)NCC(=O)O)[C@@H](C)O)C(C)C)[C@@H](C)CC [Asp EGFR p580] (H-IQCAHYIDGPHCVKTCPAG-OH; N-terminus and C-terminus assumed) | generated antibodies against Asp and iso-Asp p580, as well as Asp and iso-Asp p572 and Asp p596 | stained A431 cells above that seen with pre-immune sera | significantly smaller tumors | bound | bound | bound | strong T cell responses to both Asp and iso-Asp p580 | bound | showed affinity | neither Asp nor isoAsp EGFR p580 antisera bound; also recorded: neither the Asp nor iso-Asp EGFR p580 antiserum bound | –
2 | Rituximab: human anti-CD20 monoclonal antibody | – | – | – | – | – | – | – | – | – | – | A431 cell growth inhibition (A431 cells [5]): did not inhibit any A431 growth; MDA-MB-453 cell growth inhibition (MDA-MB-453 cells [6]): failed to inhibit
3 | VACAHYKDPPFCVA [p585-598 HER2 peptide] | – | – | – | – | – | – | – | – | – | – | Elicited antibodies binding to native HER2 (native HER2): failed to elicit antibodies that bound strongly to native HER2
4 | IQCAHYIDGPHCVKTCPAG [EGFR p580, EGFR peptide p580-598, isoform not specified at the place (Asp and iso-Asp isoforms)] | – | bind to the EGFR overexpressing human A431 epidermoid carcinoma cell line at an epitope distinct from that recognized by cetuximab | – | – | – | – | – | – | – | – | Autoimmunity, fur loss or skin pathology in immunized mice [7]: no signs of aberrant tissue autoimmunity; ADCC killing of MDA-MB-453 cells (MDA-MB-453 cells [8]): significantly induced ADCC killing; ADCC killing of A431 cells (A431 cells [9]): exhibited significant killing
5 | CC[C@H](C)[C@H](N)C(=O)N[C@@H](CCC(N)=O)C(=O)N[C@@H](CS)C(=O)N[C@@H](C)C(=O)N[C@@H](Cc1c[nH]cn1)C(=O)N[C@@H](Cc1ccc(O)cc1)C(=O)N[C@H](C(=O)N[C@@H](CC(=O)NCC(=O)N1CCC[C@H]1C(=O)N[C@@H](Cc1c[nH]cn1)C(=O)N[C@@H](CS)C(=O)N[C@H](C(=O)N[C@@H](CCCCN)C(=O)N[C@H](C(=O)N[C@@H](CS)C(=O)N1CCC[C@H]1C(=O)N[C@@H](C)C(=O)NCC(=O)O)[C@@H](C)O)C(C)C)C(=O)O)[C@@H](C)CC [isoAsp EGFR p580] (H-IQCAHYI[βAsp]GPHCVKTCPAG-OH; N-terminus and C-terminus assumed) | sera bound strongly to both isoforms of p572 and Asp 596 | – | significantly smaller tumors | bound | bound | bound | more robust response | bound | showed affinity | neither Asp nor isoAsp EGFR p580 antisera bound | Binding to A431 cells relative to Asp-isoform counterpart (human EGFR on A431 cells; flow cytometry): ~10 fold; Shift in staining intensity of A431 cells (human EGFR on A431 cells; immune sera, flow cytometry): > 10 fold; Immune serum binding to homologous HER4 p578 peptide (HER4 p578 peptide; listed as iso-Asp EGFR p580): neither the Asp nor iso-Asp EGFR p580 antiserum bound
